Laboratory results from patent publication US5106871A, “Anti-ulcer agent comprising chalcone derivative as effective ingredient and novel chalcone derivative” (Tsumura & Co., priority 1986, dated 1992).
Like-named read-outs stand apart in the source and are kept apart here.

Legend:
Assay type in all cases: in vivo, male rats of the Wister line
[1] = test system: gastric mucous membrane; test: 100% ethanol-induced gastric mucous membrane damage in rats (Experimental Example 1)
Method: After 1 hour from the administration of 100% ethanol, the abdominal operation was carried out, and the length of the damaged region on the gastric mucous membrane was measured as the mucous membrane damage coefficient and compared with the value obtained in the control group. Note, a 0.5% solution of CMC not containing a compound of formula I was intraabdominally or orally administered in the control group.

[2] = test system: gastric mucous membrane; test: 0.6N hydrochloric acid-induced gastric mucous membrane damage in rats (Experimental Example 2); conditions: for Inhibition Ratio: vs control
Method: A suspension of a compound of formula I in a […] of CMC (carboxymethyl cellulose) was intraabdominally administered in male rats of the Wister line (each group consisting of 10 rats) having a body weight of 180 to 200 g, which had been made to fast for 24 hours, and after 30 minutes, 1 ml of 0.6N hydrochloric acid was orally administered. After 1 hour from the administration of 0.6N hydrochloric acid, the abdominal operation was carried out, and the length of the damage on the gastric mucous membrane was measured as the mucous membrane damage coefficient and compared with the value obtained in the control group in the control group. Note, a 0.5% solution of CMC was intraabdominally administered. Data of the inhibition ratio calculated according to the following formula is shown in Tables 5 through 7: [formula] wherein A stands for the value obtained in the control group and B stands for the value obtained in the group in which the compound of formula I had been administered.

[3] = test system: gastric mucous membrane; test: 150 mM hydrochloric acid/60% ethanol-induced gastric mucous membrane damage in rats (Experimental Example 3); conditions: 150 mM HCl/60% ethanol; for Inhibition Ratio: vs control
Method: A suspension of a compound of formula I in a 0.5 % solution of CMC (carboxymethyl cellulose) was intraabdominally or orally administered in male rats of the Wister line (each group consisting of 10 rats) having a body weight of 180 to 200 g, which had been made to fast for 24 hours, and after 30 minutes, 1 ml of a liquid mixture of 150 mM hydrochloric acid and 60% ethanol was orally administered. After 1 hour from the administration of the liquid mixture of 150 mM hydrochloric acid and 60% ethanol, the abdominal operation was carried out, and the length of the damage on the gastric mucous membrane was measured as the mucous membrane damage coefficient and compared with the value obtained in the control group. Note, a 0.5% solution of CMC not containing a compound of formula I was intra-abdominally or orally administered in the control group. Data of the inhibition ratio calculated according to the following formula is shown in Tables 8 through 10: [formula] wherein A stands for the value obtained in the control group and B stands for the value obtained in the group in which the compound of formula I had been administered.

[4] = Rattus norvegicus, po, 1 h, Table 2, 100 mg/kg p.o., vs control, read-out: Inhibition Ratio
[5] = Table 2, 100 mg/kg p.o., control 87.7
[6] = Rattus norvegicus, ip, 1 h, Table 3, 100 mg/kg i.p., vs control, read-out: Inhibition Ratio
[7] = Table 3, 100 mg/kg i.p., control 72.63
[8] = Table 6, 100 mg/kg i.p., control 106.3
[9] = Table 9, 30 mg/kg p.o., control 84.3
[10] = Table 10, 30 mg/kg i.p., control 110.7
[11] = Rattus norvegicus, ip, 1 h, Table 4, 100 mg/kg i.p., vs control, read-out: Inhibition Ratio
[12] = Table 4, 100 mg/kg i.p., control 72.3
[13] = Table 8, 100 mg/kg p.o., control 119.0

COc1ccc(CCC(=O)c2ccc(OC)c(CCC(C)C)c2OCC(=O)O)cc1 [Specific Example 3, 1-(carboxymethoxy-4-methoxy-3-isopentylphenyl)-3-(4-methoxyphenyl)-1-propanone]
inhibition in vivo at 100 mg/kg ([1]; Rattus norvegicus, ip, 1 h, Table 1, 100 mg/kg i.p., vs control, read-out: Inhibition Ratio): 63.4% | inhibition in vivo at 100 mg/kg [1, 4]: 93.2% | Mucous Membrane Damage Coefficient ([1]; Table 1, 100 mg/kg i.p., control 102.6): 37.6 mm | Mucous Membrane Damage Coefficient [1, 5]: 6.0 mm | Mucous Membrane Damage Coefficient ([2]; Table 5, 100 mg/kg i.p., control 65.8): 61.8 mm | Inhibition Ratio ([2]; Table 5, 100 mg/kg i.p.): 68.1%

COc1cc(CCC(=O)c2c(OC)cc(OC)c(CCC(C)C)c2OCC(=O)O)ccc1O [Specific Example 5, 1-(2-carboxymethoxy-4,6-dimethoxy-3-isopentylphenyl)-3-(4-hydroxy-3-methoxyphenyl)-1-propanone]
inhibition in vivo at 100 mg/kg [1, 6]: 27.9% | Mucous Membrane Damage Coefficient [1, 7]: 52.38 mm

COc1ccc(CCC(=O)c2c(OC)cc(OC)c(CCC(C)C)c2OCC(=O)O)cc1O [Specific Example 6, 1-(2-carboxymethoxy-4,6-dimethoxy-3-isopentylphenyl)-3-(3-hydroxy-4-methoxyphenyl)-1-propanone]
inhibition in vivo at 100 mg/kg [1, 6]: 32.4% | Mucous Membrane Damage Coefficient [1, 7]: 49.13 mm

COc1cc(CCC(=O)c2c(OC)cc(OC)c(CCC(C)C)c2OCC(=O)O)cc(OC)c1O [Specific Example 7, 1-(2-carboxymethoxy-4,6-dimethoxy-3-isopentylphenyl)-3-(4-hydroxy-3,5-dimethoxyphenyl)-1-propanone]
inhibition in vivo at 100 mg/kg [1, 6]: 32.5% | Mucous Membrane Damage Coefficient [1, 7]: 49.00 mm

COc1ccc(/C=C/C(=O)c2ccc(OC)c(CC=C(C)C)c2OCC(=O)O)cc1 [Specific Example 8, 2'-carboxymethoxy-4,4'-dimethoxy-3'-(3-methyl-2-butenyl)chalcone]
inhibition in vivo at 100 mg/kg [1, 6]: 78.5% | Mucous Membrane Damage Coefficient [1, 7]: 15.63 mm | Mucous Membrane Damage Coefficient [2, 8]: 62.4 mm | Inhibition Ratio ([2]; Table 6, 100 mg/kg i.p.): 41.3%

COc1ccc(/C=C/C(=O)c2c(OC)cc(OC)c(CCC(C)C)c2OCC(=O)O)cc1 [Specific Example 9, 2'-carboxymethoxy-4,4',6'-trimethoxy-3'-isopentylchalcone]
inhibition in vivo at 100 mg/kg [1, 6]: 93.1% | Mucous Membrane Damage Coefficient [1, 7]: 5.00 mm | Mucous Membrane Damage Coefficient [2, 8]: 39.6 mm | Inhibition Ratio ([2]; Table 6, 100 mg/kg i.p.): 62.3%

COc1ccc(CCC(=O)c2c(OC)cc(OC)cc2OCC(=O)O)cc1 [Specific Example 11, 1-(2-carboxymethoxy-4,6-dimethoxyphenyl)-3-(4-methoxyphenyl)-1-propanone]
inhibition in vivo at 100 mg/kg [1, 6]: 92.8% | Mucous Membrane Damage Coefficient [1, 7]: 5.25 mm | Mucous Membrane Damage Coefficient [2, 8]: 36.6 mm | Inhibition Ratio ([2]; Table 6, 100 mg/kg i.p.): 65.6%

COc1ccc(CCC(=O)c2c(OC)cc(OC)c(CC=C(C)C)c2OCC(=O)O)cc1 [Specific Example 12, 1-[2-carboxymethoxy-4,6-dimethoxy-3-(3-methyl-2-butenyl)phenyl]-3-(4-methoxyphenyl) -propanone]
inhibition in vivo at 100 mg/kg [1, 6]: 43.2% | Mucous Membrane Damage Coefficient [1, 7]: 41.25 mm | Mucous Membrane Damage Coefficient [2, 8]: 76.6 mm | Inhibition Ratio ([2]; Table 6, 100 mg/kg i.p.): 27.8%

O=C(/C=C/c1ccc(O)cc1)c1ccc(O)cc1O [Specific Example 15, 2',4,4'-trihydroxychalcone]
Mucous Membrane Damage Coefficient [3, 9]: 30.0 mm | Inhibition Ratio ([3]; Table 9, 30 mg/kg p.o.): 64.4% | Mucous Membrane Damage Coefficient [3, 10]: 49.5 mm | Inhibition Ratio ([3]; Table 10, 30 mg/kg i.p.): 55.3%

COc1ccc(/C=C/C(=O)c2ccc(OC)c(CC=C(C)C)c2O)cc1 [Specific Example 16, 2'-hydroxy-4,4'-dimethoxy-3'-(3-methyl-2-butenyl)chalcone]
inhibition in vivo at 100 mg/kg [1, 11]: 36.4% | Mucous Membrane Damage Coefficient [1, 12]: 46.0 mm

O=C(/C=C/c1ccc(O)c(O)c1)c1ccc(O)cc1O [Specific Example 19, 2',3,4,4'-tetrahydroxychalcone]
Mucous Membrane Damage Coefficient [3, 9]: 10.5 mm | Inhibition Ratio ([3]; Table 9, 30 mg/kg p.o.): 87.5%

O=C(CCc1ccc(O)cc1)c1ccc(O)cc1O [Specific Example 22, 1-(2,4-dihydroxyphenyl)-3-(4-hydroxyphenyl)-1-propanone]
Mucous Membrane Damage Coefficient [3, 13]: 1.4 mm | Inhibition Ratio ([3]; Table 8, 100 mg/kg p.o.): 98.8% | Mucous Membrane Damage Coefficient [3, 9]: 57.2 mm | Inhibition Ratio ([3]; Table 9, 30 mg/kg p.o.): 32.1% | Mucous Membrane Damage Coefficient [3, 10]: 54.2 mm | Inhibition Ratio ([3]; Table 10, 30 mg/kg i.p.): 51.0%

O=C(CCc1ccc(O)cc1)c1c(O)cc(O)cc1O [Specific Example 23, 1-(2,4,6-trihydroxyphenyl)-3-(4-hydroxyphenyl)-1-propanone]
inhibition in vivo at 100 mg/kg [1, 11]: 36.7% | Mucous Membrane Damage Coefficient [1, 12]: 45.8 mm | Mucous Membrane Damage Coefficient [3, 13]: 67.9 mm | Inhibition Ratio ([3]; Table 8, 100 mg/kg p.o.): 43.0%

CC(=O)Oc1c(CC=C(C)C)c(O)cc(O)c1C(=O)CCc1ccc(O)cc1 [Specific Example 24, 1-[2-acetoxy-4,6-hydroxy-3-(3-methyl-2-butenyl)phenyl]-3-(4-hydroxyphenyl)-1-propanone]
inhibition in vivo at 100 mg/kg [1, 11]: 23% | Mucous Membrane Damage Coefficient [1, 12]: 55.7 mm

O=C(CCc1ccc(O)c(O)c1)c1ccc(O)cc1O [Specific Example 27, 1-(2,4-dihydroxyphenyl)-3-(3,4-dihydroxyphenyl)-1-propanone]
Mucous Membrane Damage Coefficient [3, 9]: 1.5 mm | Inhibition Ratio ([3]; Table 9, 30 mg/kg p.o.): 98.2% | Mucous Membrane Damage Coefficient [3, 10]: 60.0 mm | Inhibition Ratio ([3]; Table 10, 30 mg/kg i.p.): 45.8%

O=C(CCc1ccc(O)c(O)c1)c1c(O)cc(O)cc1O [Specific Example 28, 1-(2,4,6-trihydroxyphenyl)-3-(3,4-dihydroxyphenyl)-1-propanone]
inhibition in vivo at 100 mg/kg [1, 11]: 90% | Mucous Membrane Damage Coefficient [1, 12]: 7.2 mm | Mucous Membrane Damage Coefficient [3, 13]: 15.7 mm | Inhibition Ratio ([3]; Table 8, 100 mg/kg p.o.): 86.8%

CC(C)CCc1c(O)cc(O)c(C(=O)CCc2ccc(O)cc2)c1OCC(=O)O [Specific Example 32, 1-(2-carboxymethoxy-4,6-dihydroxy-3-isopentylphenyl)-3-(4-hydroxyphenyl)-1-propanone]
inhibition in vivo at 100 mg/kg [1, 11]: 61.3% | Mucous Membrane Damage Coefficient [1, 12]: 28.0 mm

COc1ccc(CCC(=O)c2ccc(OC)c(CCC(C)C)c2O)cc1 [Specific Example 33, 1-(2-hydroxy-4-methoxy-3-isopentylphenyl)-3-(4-methoxyphenyl)-1-propanone]
inhibition in vivo at 100 mg/kg [1, 11]: 40.1% | Mucous Membrane Damage Coefficient [1, 12]: 3.3 mm

COc1ccc(CCC(=O)c2c(OC)cc(OC)c(CCC(C)C)c2OCC(=O)O)cc1 [Specific Example 35, 1-(2-carboxymethoxy-4,6-dimethoxy-3-isopentylphenyl)-3-(4-methoxyphenyl)-1-propanone]
inhibition in vivo at 35 mg/kg ([1]; Rattus norvegicus, ip, 1 h, Table 1, 35 mg/kg i.p., vs control, read-out: Inhibition Ratio): 67.2% | inhibition in vivo at 100 mg/kg [1, 4]: 81.2% | Mucous Membrane Damage Coefficient ([1]; Table 1, 35 mg/kg i.p., control 102.6): 33.7 mm | Mucous Membrane Damage Coefficient [1, 5]: 16.5 mm | Mucous Membrane Damage Coefficient ([2]; Table 7, 100 mg/kg i.p., control 133.8): 65.8 mm | Inhibition Ratio ([2]; Table 7, 100 mg/kg i.p.): 50.8%

CC(C)CCc1cc(CCC(=O)c2c(O)cc(O)c(CCC(C)C)c2O)ccc1O [Specific Example 37, 1-(2,4,6-trihydroxy-3-isopentylphenyl)-3-(4-hydroxy-3-isopentylphenyl)-1-propanone]
inhibition in vivo at 100 mg/kg [1, 11]: 31.1% | Mucous Membrane Damage Coefficient [1, 12]: 49.8 mm
